The test system of series [1] is TXB2. The series can be described thus: Pharmacodynamics in Beagle dogs, plasma TXB2. The note with it: 15 mg/kg, Day 1 and Day 4 pre-treatment. The class given is in vivo. How it is done:
(§1) The pharmacokinetics of five different formulations of otenaproxesul (formerly ATB-346) were evaluated in Beagle dogs. Five groups of dogs (n=3/group) were orally administered their assigned formulations once daily for four days. Blood samples were taken for a full 24-hour PK profile on Day 1 and on Day 4.
(§2) Group 1 was administered crystalline otenaproxesul, Group 2 was administered milled crystalline otenaproxesul, Group 3 was administered micro-milled crystalline otenaproxesul, Group 4 was administered exemplary ASD no. 1 (see Example 7A above) and Group 5 was administered exemplary ASD no. 4 (see Example 7A above). Dose administered was 15 mg/kg (human equivalent dose of 525 mg).
Pharmacodynamic assessment of TXB2 and PGE2 plasma concentrations were assessed on: • Day 1, one hour post treatment • Day 1, 12 hours post treatment • Day 4, pre-treatment • Day 4, one hour post treatment • Day 4, 12 hours post treatment.

Series [2] is described as follows: Pharmacokinetics in Beagle dogs of five formulations (Example 15). The series is classed as in vivo. To be noted: Day 1, 1- and 12-hour time points. The method, then:
as §1, §2
Crystalline otenaproxesul was administered to dog Groups 1-3 in gelatin capsules by oral gavage. Exemplary ASD no. 1 and exemplary ASD no. 4 were administered as oral suspensions to dog Groups 4-5.

Series [3] can be described thus: Phase 1 SAD clinical trial, plasma naproxen (M25) levels. The series is classed as in vivo, human. The note with it: single oral dose of about 1500 mg to 2000 mg. How it is done: Otenaproxesul (crystalline form) was orally administered at a range of doses to healthy volunteers, both as a single dose, and as a daily (or twice-daily) dose for 14 days. Each cohort consisted of 8 subjects, with 6 receiving otenaproxesul and 2 receiving placebo. A total of 8 cohorts were studied in the single-dose study (25 mg, 75 mg, 150 mg, 300 mg, 500 mg, 1000 mg, 1500 mg and 2000 mg), and 3 cohorts in the multiple-dose study (250 and 750 once daily, and 750 mg bid (e.g., 1500 mg/day) for 14 days). All adverse events were recorded, and blood samples were drawn prior to and for at least 72 h after drug administration for measurement of otenaproxesul-derived naproxen levels. Routine cardiovascular, renal, hepatic and hematological biomarkers were monitored, along with clinical signs. […]
It is noted from the pharmacokinetic curves in FIG. 1 showing naproxen metabolite (M25) plasma levels following single dose crystalline otenaproxesul administrations in healthy subjects from the Phase 1 single ascending dose (SAD) study in Example 1, the time to attain maximal plasma concentration of M25 varies widely between 6 and 48 hours across the dosage spectrum. […] Therefore, while not being bound by theory, a single 2000 mg treatment is predicted to provide pain relief for 3 days and possibly to 5 days based upon measured and projected M25 plasma concentrations. […]

The subject of series [4] is ALT and AST. Briefly: Analysis of liver transaminase elevations over the clinical studies. The class given is in vivo, human. The method, then:
These LTEs were detected after the patients had completed their full treatment course.
When liver safety findings are observed, cumulative naproxen metabolite plasma drug exposure over the prescribed treatment period exceeded 4000 μg*hr/mL.

A short description of series [5]: Phase 2b study, safety (treatment-emergent adverse events). The class given is in vivo, human. To be noted: for hypertension or blood pressure increased: 2 patients. The method, then:
Study visits occurred on Day 1, Day 4, and Day 14 of the 14-day treatment phase and included WOMAC evaluations, blood samples for thromboxane B2 TXB2 and pharmacokinetic (PK) testing. The safety of otenaproxesul was evaluated through monitoring for adverse events (AEs), changes in physical examinations, vital signs measurements, and clinical laboratory evaluations.
Patients were followed for safety for up to 24 days following initiation of treatment. A final visit for safety assessments occurred upon study completion on Day 24 or early termination.
All patients receiving any amount of study treatment (otenaproxesul or placebo) were included in the safety analysis. Each treatment arm was evaluated separately. In addition to the evaluation and categorization of treatment-emergent adverse events (TEAEs), listings of laboratory test results collected at Baseline and during the study were generated. Descriptive statistics summarizing the changes in those laboratory tests over time were presented.

Series [6] concerns liver transaminases. The series can be described thus: 28-day PK/PD and AME clinical study in healthy older adults, liver transaminase elevations. The class given is in vivo, human. To be noted: 100 mg cohort, full drug administration period. How it is done: The study was designed in part on the observation that across the otenaproxesul treatment groups, treatment-related >3×ULN (“upper limit of normal”) ALT and/or AST transaminase levels were noted (almost exclusively after the 14-day dosing interval) in 9.8% (6/61) of patients in the 150 mg arm, 7.2% (9/125) of patients in the 200 mg arm and 12.9% (17/132) patients in the 250 mg arm, with this issue being substantially biased towards females),
In this clinical trial, 28-day human safety/PK data was generated to complement the 14-day DRF data from Example 2. Biomarker data/dose (e.g., thromboxane B2) were also generated using standard ELISA assay kits.
Otenaproxesul was supplied as 75 mg, 100 mg and 125 mg, brown, film-coated tablets and was in crystalline form. Patients were instructed to take 1 tablet of otenaproxesul in the morning after an overnight fast. Food intake was restricted until at least 30 minutes after the morning dose.
The study enrolled a total of 42 subjects on either a 75 mg or 100 mg dose per day of otenaproxesul, of whom 35 had completed the 28-day drug administration period, with seven subjects having been administered the drug for 21 days before the study was paused. […]

“Also recorded” adds a separate entry of the source.

Take `COc1ccc2cc([C@H](C)C(=O)Oc3ccc(C(N)=S)cc3)ccc2c1` [crystalline otenaproxesul]: in series [1], the “inhibition of TXB2 relative to ASDs” value is recorded as “inhibition of TXB2 was lower”. Besides, the “lower M25 plasma concentration than the exemplary ASDs” value in series [2] turned out to be 10 ×.
Regarding `COc1ccc2cc([C@H](C)C(=O)Oc3ccc(C(N)=S)cc3)ccc2c1` [otenaproxesul, (S)-4-carbamothioylphenyl 2-(6-methoxynaphthalen-2-yl) propanoate], the “duration of plasma naproxen metabolite greater than about 10 μg/mL” value in series [3] is “over 72 hours”. Moreover, in series [4] (multiple dose 150, 200 or 250 mg for seven days), the “adverse liver effects (transient elevations of liver transaminases)” value is given as “no observed adverse liver effects”. In addition, in series [4] (multiple dose 150, 200 or 250 mg, 14 days or less), the liver transaminase elevations entry is “not detected”. Further, in series [4] (over the prescribed treatment), the “cumulative plasma naproxen exposure at which LTEs are not observed” value is not above 4000 µg·h/mL. In series [4] (over the prescribed treatment period), the “cumulative naproxen plasma exposure when liver safety findings are observed” value is reported as “exceeded 4000 μg*hr/mL”. Further, the “patients with dose-related liver transaminase elevation” value in series [4] (phase 2 study) was “approximately 10%”. The liver transaminase elevations result in series [4] (single dose 25 mg to 2000 mg (crystalline)) was “not detected; also recorded: no observed adverse liver effects”. In series [5] (150 mg), the “hypertension or hypotension events” value was “No patients” and the “patients with TEAEs” value came to 37.7%. For the same compound, the hypotension in series [5] (200 mg, 1 patient) turned out to be 0.8%. Besides, in series [5] (200 mg), the “hypertension or blood pressure increased” value stood at 1.6%. In series [5] (250 mg), the “patients with TEAEs” value amounted to 43.9% and the “hypertension or blood pressure increased” value came out at 1.5%. In series [5] (all otenaproxesul groups), the TEAE headache stood at 5.0%, the “TEAE hepatic enzyme increased” value worked out at 8.2% and the “patients with at least 1 TEAE” value is on record as 40.9%. Besides, in series [5] (all otenaproxesul groups, 14-day treatment), the “gastrointestinal disorder TEAEs” value is reported as 14.5%. In addition, in series [5] (all three doses, 14 days), the tolerability entry is reported as “well tolerated at all three administered doses”. The “discontinuation due to gastrointestinal TEAEs” value in series [5] (all three treatment arms) is “none were discontinued due to TEAEs related to gastrointestinal adverse effects”. Further, the serum creatinine in series [5] (one patient, 200 mg for 14 days, Day 24) was found to be 1.5 ×ULN. In addition, the “subjects with liver transaminase elevations exceeding five times the upper limit of normal” value in series [6] is listed as “Three”.

Source of the values: patent US20260355142A1, “AMORPHOUS OTE[…] COMPOSITIONS AND USES THEREOF AND DOSAGE REGIMENS FOR OTENAPROXESUL” (ANTIBE THERAPEUTICS INC., priority 2022, published 2026).
